Data: patent publication US10736343B2, “Antimicrobial formulations with pelargonic acid” (ANITOX CORPORATION, priority 2011, dated 2020)
Values after ≈ are worked out from the molar mass of the structure shown. Where two headings read alike, the source gives them in different places.

Columns and labels:
[1] = system: Staphylococcus aureus, E. coli and Salmonella typhimurium; conditions: cited from earlier work
[2] = system: Salmonella typhimurium (ATCC #14028); assay: Salmonella typhimurium suspension in test tubes with formaldehyde and/or pelargonic acid, plate count (Example 1); assay type: cell-based
Method: (§1) Solutions were vortexed for 10 seconds to ensure mixing. There were three replicate tubes per treatment. A suspension of Salmonella typhimurium (10^3 cfu/ml, ATCC #14028) was added to three test tubes containing each formulation. The solutions were vortexed, incubated at room temperature for 24 hours plated on SMA (Standard Methods Agar) for 24 hours before counting Salmonella colonies.

[3] = system: Salmonella typhimurium (ATCC #14028); assay: Salmonella typhimurium suspension in test tubes with formaldehyde and/or pelargonic acid, plate count (Example 2); assay type: cell-based
Method: as §1, with “24 hours and plated on” for “24 hours plated on”

Salmonella typhimurium [4] = assay: In vitro test of five formulations against Salmonella typhimurium suspension (Example 3); assay type: cell-based; conditions: pelargonic acid at 10% of formula
Method: Formulations were added to test tubes at concentrations of 0.01% and 0.05%. Solutions were vortexed for 10 seconds to ensure mixing. There were three replicate tubes per treatment.
A suspension of Salmonella typhimurium (10^4 cfu/ml) was added to three test tubes containing the different dilutions of each formulation. The tubes were vortexed, incubated at room temperature for 24 hours and then the solution was plated on SMA (Standard Methods Agar) for 48 hours before counting Salmonella colonies.

parasite C. irritans = conditions: cited from earlier work
Salmonella typhimurium [5] = assay: In vitro test of aldehyde / hexenal / pelargonic acid formulations against Salmonella typhimurium suspension (Example 7); assay type: cell-based; conditions: for ability to replace trans-2-hexenal (in words): At both 5% and 10% pelargonic acid
Method: Seven aldehydes (butyraldehyde, citral, undecylenic aldehyde, decadienal, cinnamaldehyde, decanal and furfural) were blended with trans-2-hexenal, pelargonic acid, propionic acid and acetic acid as presented in Table 9. A 20% (X−1) and a 25% (F18) hexanal: organic acid product were included as positive controls. […] Solutions were vortexed for 10 seconds to uniformly mix the solution. There were three replicate tubes per treatment. […] The solutions were vortexed, incubated at room temperature for 24 hours and then plated on XLT-4 agar for 48 hours before counting Salmonella colonies.

M. gypseum = conditions: cited from earlier work
Salmonella typhimurium [6] = assay: Residual activity in treated poultry mash feed contaminated after treatment (Example 6); assay type: cell-based; conditions: for % Reduction at 13 Days: feed contaminated 13 days post treatment
Method: Formula 1 from Example 3 composed of 25% trans-2-hexenal, 5% pelargonic acid and 70% aqueous organic acids was compared to trans-2-hexenal for residual activity in feed. Poultry mash feed was treated with 0.1, 0.25, 0.5 or 1.0 kg/ton of hexenal compared to 1 kg/ton of the hexenal: pelargonic acid combination product (0.25 kg/ton of hexenal), At 1, 6 and 13 days post treatment, feed was contaminated with a meat and bone meal inoculum of Salmonella typhimurium at a level of 10^3 cfu/g of feed. After 24 hours, 10 g of subsamples of the untreated and treated feed were suspended in 90 ml Butterfield buffer. Dilutions were plated on XLT-4 agar and incubated at 37° C. for 48 hours before counting Salmonella colonies.

yeast (10^5 CFU/bottle) = conditions: cited from earlier work
[7] = system: B. cereus, S. typhimurium, V. parahaemolyticus, L. monocytogenes, S. aureus and E. coli O157:H7; conditions: cited from earlier work
Penicillium expansum = conditions: cited from earlier work
[8] = rat, cited from earlier work
[9] = system: A. flavus, P. notatum, A. alternate, F. oxysporum, Cladosporium species, B. subtilis and A. tumerfaciens; conditions: cited from earlier work
mold = conditions: 0.86 or 1.71 mmol per 1.1 L container for 2 weeks; cited from earlier work
[10] = system: Helicobacter pylori and S. cholerasuis; conditions: cited from earlier work
[11] = system: apricots, peaches and nectarines; conditions: cited from earlier work
E. coli = conditions: cited from earlier work
pears and apples = conditions: 12.5 μL/L, twenty four hours to seven days exposure; cited from earlier work
Phoma mycelium = conditions: cited from earlier work
P. syringae pathovars = conditions: cited from earlier work
[12] = rat, in vivo; cited from earlier work
[13] = formaldehyde 0.00312 %, pelargonic acid 0 %
[14] = formaldehyde 0.00625 %, pelargonic acid 0 %
[15] = formaldehyde 0.0125 %, pelargonic acid 0 %
[16] = formaldehyde 0.025 %, pelargonic acid 0 %
[17] = formaldehyde 0 %, pelargonic acid 0.00125 %
[18] = formaldehyde 0 %, pelargonic acid 0.0025 %
[19] = At 5% pelargonic acid, aldehyde by itself
[20] = At 10% pelargonic acid, 20% aldehyde

CC/C=C/CC=O [(3E)-hexenal]
level effective in controlling [1]: 3 to 30 µg/mL

C=O [Formaldehyde]
Salmonella % reduction [2, 13]: 17.3% | Salmonella % reduction [2, 14]: 39.3% | Salmonella % reduction [2, 15]: 59.0% | Salmonella % reduction [2, 16]: 90.8% | Salmonella % reduction [3, 13]: 17.7% | Salmonella % reduction [3, 14]: 41.0% | Salmonella % reduction [3, 15]: 50.5% | Salmonella % reduction [3, 16]: 88.3%

CCCCCCCCC(=O)O [Pelargonic acid, Pelargonic acid (nonanoic acid)]
bactericidal effect (in words) ([2]; at the highest dose tested): not bactericidal | Salmonella % reduction ([2]; formaldehyde 0 %, pelargonic acid 0.000312 %): 0% | Salmonella % reduction ([2]; formaldehyde 0 %, pelargonic acid 0.000625 %): 0% | Salmonella % reduction [2, 17]: 0% | Salmonella % reduction [2, 18]: 0% | effect on the effectiveness of formaldehyde (in words) ([2]; pelargonic acid at 0.00125 and 0.0025%): did appear to increase the effectiveness of formaldehyde | effect on efficacy of trans-2-hexenal (in words) (Salmonella typhimurium [4]): increases the efficacy of trans-2-hexenal | control of parasite growth (in words) (parasite C. irritans): effective in controlling the growth | potentiation of aldehyde efficacy (in words) (Salmonella typhimurium [5]): potentiates the efficacy of each individual aldehyde and aldehyde combination | minimum inhibitory concentration (MIC) (M. gypseum; in liquid media): 50 µg/mL (≈ 316 µM) | minimum inhibitory concentration (MIC) (M. gypseum; on solid media): 40 µg/mL (≈ 253 µM) | effectiveness against Salmonella versus trans-2-hexenal alone (in words) (Salmonella typhimurium [6]; addition of pelargonic acid (5%) to trans-2-hexenal): better effectiveness against Salmonella than trans-2-hexenal by itself | Salmonella % reduction [3, 17]: 2.1% | Salmonella % reduction [3, 18]: 8.8% | Salmonella % reduction ([3]; formaldehyde 0 %, pelargonic acid 0.005 %): 96.5% | Salmonella % reduction ([3]; formaldehyde 0 %, pelargonic acid 0.01 %): 100% | effect on bactericidal efficacy of formaldehyde (in words) ([3]; pelargonic acid 0.00125% and 0.0025% mixed with formaldehyde): the bactericidal efficacy of formaldehyde was improved | impact on Salmonella reduction (in words) ([3]; pelargonic acid alone at 0.00125% and 0.0025%): did not have a significant impact on Salmonella reduction

CCCC=O [butyraldehyde]
effectiveness compared with trans-2-hexenal (in words) (Salmonella typhimurium [5]; [19]): not as effective as trans-2-hexenal | effectiveness compared with trans-2-hexenal (in words) (Salmonella typhimurium [5]; [20]): as effective as 20% trans-2-hexenal | ability to replace trans-2-hexenal (in words) (Salmonella typhimurium [5]): can partially replace trans-2-hexenal

CCCCCCCCCC(=O)O [capric acid]
minimum inhibitory concentration (MIC) (M. gypseum; in liquid media): 75 µg/mL (≈ 435 µM) | minimum inhibitory concentration (MIC) (M. gypseum; on solid media): 20 µg/mL (≈ 116 µM)

O=CC=Cc1ccccc1 [cinnamaldehyde]
ability to replace trans-2-hexenal (in words) (Salmonella typhimurium [5]): can replace trans-2-hexenal

CC(C)=CCCC(C)=CC=O [citral]
effectiveness compared with trans-2-hexenal (in words) (Salmonella typhimurium [5]; [19]): not as effective as trans-2-hexenal | effectiveness compared with trans-2-hexenal (in words) (Salmonella typhimurium [5]; [20]): as effective as 20% trans-2-hexenal | ability to replace trans-2-hexenal (in words) (Salmonella typhimurium [5]): can partially replace trans-2-hexenal | concentration equivalent to 25 ppm trans-2-hexenal and thermal treatment (yeast (10^5 CFU/bottle)): 100-120 ppm

CCCCCC=CC=CC=O [decadienal aldehyde, 2-4-decadienal]
ability to replace trans-2-hexenal (in words) (Salmonella typhimurium [5]): can replace trans-2-hexenal

CCCCCCCCCC=O [decanal]
ability to replace trans-2-hexenal (in words) (Salmonella typhimurium [5]): can replace trans-2-hexenal

O=Cc1ccco1 [furfural]
ability to replace trans-2-hexenal (in words) (Salmonella typhimurium [5]): can replace trans-2-hexenal

CCC/C=C/C=O [trans-2-hexenal]
effective concentration [7]: 247 mg/L | concentration effective on controlling (Penicillium expansum): 12.5 μL/L | body weight and intake (in words) ([8]; 4000 ppm in diet, 13 wk): reduction in body weight and intake, but it was not significant | hematological parameters or organ weights (in words) ([8]; dietary levels 260, 640, 1600 or 4000 ppm for 13 wk): did not induce any changes in hematological parameters or organ weights | concentration that completely inhibited the growth [9]: 8 ng/L air | control of mold (in words) (mold): showed promise for control of mold | minimum biocidal activity [10]: 800 µg/mL | minimum inhibitory activity [10]: 400 µg/mL | phytotoxicity (in words) ([11]; apricots): not phytotoxic | phytotoxicity (in words) ([11]; peaches and nectarines at 40 μL/L): phytotoxic | concentration that completely inhibited proliferation (E. coli): 930 micrograms/L of air | fruit quality (in words) (pears and apples): did not affect fruit appearance, color, firmness, soluble solids content or titratable acidity | % Reduction at 13 Days (Salmonella typhimurium [6]; 0.10 kg/ton hexenal): 0% | % Reduction at 13 Days (Salmonella typhimurium [6]; 0.25 kg/ton hexenal): 0% | % Reduction at 13 Days (Salmonella typhimurium [6]; 0.50 kg/ton hexenal): 77.4% | % Reduction at 13 Days (Salmonella typhimurium [6]; 1.00 kg/ton hexenal): 87.1% | concentration effective at inhibiting growth (Phoma mycelium): 250 µg/mL | concentration that completely inhibited proliferation (P. syringae pathovars): 570 ug/L of air | toxic levels in rats relative to normal intake by humans [12]: 30 times | concentration necessary to stabilize beverages (yeast (10^5 CFU/bottle); beverages not thermally treated): 35 ppm | concentration controlling yeast in beverages (yeast (10^5 CFU/bottle); with thermal treatment (56° C. for 20 min)): 25 ppm

C=CCCCCCCCCC=O [undecylenic aldehyde]
ability to replace trans-2-hexenal (in words) (Salmonella typhimurium [5]): can replace trans-2-hexenal
